Assay results published in PMC6197744, “Triazolo[4,5-d]pyrimidines as Validated General Control Nonderepressible 2 (GCN2) Protein Kinase Inhibitors Reduce Growth of Leukemia Cells” (Computational and Structural Biotechnology Journal, 2018).

Legend:
PDK1/PDPK1 = target: T1, PDK1/PDPK1 (Homo sapiens, UniProt O15530); experiment: Broad kinase panel screen (split-luciferase); format: binding; conditions: PDK1/PDPK1, 0.5 uM
T1 construct: purchased Luceome Biotechnologies
Description: (§1) Compound 2 was screened against a standard panel of 50 protein kinases by Luceome Biotechnologies (Tucson, AZ). In brief, Compound 2 was dissolved and diluted in DMSO to a concentration of 12.5 μM from a 10 mM stock solution. As a control, compound 2 was evaluated for false positive against split-luciferase. For kinase assays, each C-terminal half of firefly luciferase linked kinase (Cfluc-Kinase) was translated along with the coiled coil Fos attached to the N-terminal fragment (Nfluc) (Fos-Nfluc) using rabbit reticulocyte lysate at 30 °C for 90 min. 24 µL aliquot of this lysate containing 1 µL of either DMSO or Compound 2 (at a final concentration 0.5 μM) was incubated for 30 minutes at room temperature followed by 1 hour incubation in the presence of a kinase specific probe. Finally, 80 µL of luciferin assay reagent was added and luminescence was immediately measured on a luminometer. Compound 2 was screened in duplicate against each kinase.
(§2) The % Inhibition and % Activity Remaining was calculated using the following equations: […]

ABL1 = target: T2, ABL1 (Homo sapiens, UniProt P00519); experiment: Broad kinase panel screen (split-luciferase); format: binding; conditions: ABL1, 0.5 uM
T2 construct: purchased Luceome Biotechnologies
Description: as §1, §2

IGF1R = target: T3, IGF1R (Homo sapiens, UniProt P08069); experiment: Broad kinase panel screen (split-luciferase); format: binding
T3 construct: purchased Luceome Biotechnologies
T3 sequence (P08069 31-1367): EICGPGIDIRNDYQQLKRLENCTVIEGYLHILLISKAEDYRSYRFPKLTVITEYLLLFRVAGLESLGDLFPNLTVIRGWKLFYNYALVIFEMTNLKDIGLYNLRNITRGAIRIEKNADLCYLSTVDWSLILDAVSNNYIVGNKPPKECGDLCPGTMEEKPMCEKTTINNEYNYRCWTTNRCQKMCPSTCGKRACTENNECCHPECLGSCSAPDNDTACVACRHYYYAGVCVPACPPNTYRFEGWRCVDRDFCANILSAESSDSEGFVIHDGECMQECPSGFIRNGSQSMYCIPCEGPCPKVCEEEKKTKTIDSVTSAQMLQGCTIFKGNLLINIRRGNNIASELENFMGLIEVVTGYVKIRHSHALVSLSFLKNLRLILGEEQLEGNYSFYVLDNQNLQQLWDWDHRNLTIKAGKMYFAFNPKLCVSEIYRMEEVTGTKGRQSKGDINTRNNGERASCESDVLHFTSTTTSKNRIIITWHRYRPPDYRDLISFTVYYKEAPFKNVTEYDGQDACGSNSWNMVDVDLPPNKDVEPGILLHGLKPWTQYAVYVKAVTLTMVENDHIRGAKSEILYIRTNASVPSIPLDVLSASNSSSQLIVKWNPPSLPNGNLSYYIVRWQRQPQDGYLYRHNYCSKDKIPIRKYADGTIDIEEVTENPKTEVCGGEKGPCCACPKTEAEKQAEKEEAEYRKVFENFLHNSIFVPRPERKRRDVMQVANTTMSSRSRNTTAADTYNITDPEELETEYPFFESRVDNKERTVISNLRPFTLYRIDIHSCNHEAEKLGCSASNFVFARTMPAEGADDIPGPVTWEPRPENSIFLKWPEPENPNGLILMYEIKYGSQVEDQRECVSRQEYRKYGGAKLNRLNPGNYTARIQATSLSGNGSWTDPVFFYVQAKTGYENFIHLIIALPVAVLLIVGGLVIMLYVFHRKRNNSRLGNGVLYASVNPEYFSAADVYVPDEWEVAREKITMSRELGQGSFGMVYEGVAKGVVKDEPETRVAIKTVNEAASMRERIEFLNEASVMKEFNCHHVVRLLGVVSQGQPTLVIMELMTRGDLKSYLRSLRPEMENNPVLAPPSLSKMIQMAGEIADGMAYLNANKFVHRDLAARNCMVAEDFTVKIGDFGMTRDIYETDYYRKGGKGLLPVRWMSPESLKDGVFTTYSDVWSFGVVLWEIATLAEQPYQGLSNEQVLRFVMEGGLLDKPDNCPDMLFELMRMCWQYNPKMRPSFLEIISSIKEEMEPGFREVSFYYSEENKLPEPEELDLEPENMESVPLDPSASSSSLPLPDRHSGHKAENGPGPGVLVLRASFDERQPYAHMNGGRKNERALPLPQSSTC
Description: as §1, §2

PLK4 = target: T4, PLK4 (Homo sapiens, UniProt O00444); experiment: Broad kinase panel screen (split-luciferase); format: binding; conditions: PLK4, 0.5 uM
T4 construct: purchased Luceome Biotechnologies
Description: as §1, §2

PKCe/PRKCE = target: T5, PKCe/PRKCE (Homo sapiens, UniProt Q02156); experiment: Broad kinase panel screen (split-luciferase); format: binding
T5 construct: purchased Luceome Biotechnologies
Description: as §1, §2

PTK2B/PYK2 = target: T6, PTK2B/PYK2 (Homo sapiens, UniProt Q14289); experiment: Broad kinase panel screen (split-luciferase); format: binding; conditions: PTK2B/PYK2, 0.5 uM
T6 construct: purchased Luceome Biotechnologies
Description: as §1, §2

CAMK2D = target: T7, CAMK2D (Homo sapiens, UniProt Q13557); experiment: Broad kinase panel screen (split-luciferase); format: binding
T7 construct: purchased Luceome Biotechnologies
T7 sequence (Q13557 whole entry): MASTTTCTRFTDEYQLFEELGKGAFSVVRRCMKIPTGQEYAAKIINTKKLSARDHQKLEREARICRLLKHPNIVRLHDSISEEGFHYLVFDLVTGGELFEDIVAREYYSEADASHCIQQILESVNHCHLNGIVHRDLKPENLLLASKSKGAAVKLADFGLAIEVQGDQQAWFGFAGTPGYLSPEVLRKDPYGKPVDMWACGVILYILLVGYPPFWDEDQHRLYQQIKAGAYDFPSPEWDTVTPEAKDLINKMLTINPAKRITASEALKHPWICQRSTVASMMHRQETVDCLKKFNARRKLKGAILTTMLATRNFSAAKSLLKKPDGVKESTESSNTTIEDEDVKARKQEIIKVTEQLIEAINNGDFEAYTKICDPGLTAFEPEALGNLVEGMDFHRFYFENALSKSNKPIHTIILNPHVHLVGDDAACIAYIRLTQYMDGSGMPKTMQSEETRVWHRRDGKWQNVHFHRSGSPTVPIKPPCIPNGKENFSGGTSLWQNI
Description: as §1, §2

MST2 = target: T8, MST2 (Homo sapiens, UniProt Q13188); experiment: Broad kinase panel screen (split-luciferase); format: binding; conditions: MST2, 0.5 uM
T8 construct: purchased Luceome Biotechnologies
Description: as §1, §2

PDGFRB = target: T9, PDGFRB (Homo sapiens, UniProt P09619); experiment: Broad kinase panel screen (split-luciferase); format: binding
T9 construct: purchased Luceome Biotechnologies
Description: as §1, §2

MARK1 = target: T10, MARK1 (Homo sapiens, UniProt Q9P0L2); experiment: Broad kinase panel screen (split-luciferase); format: binding; conditions: MARK1, 0.5 uM
T10 construct: purchased Luceome Biotechnologies
Description: as §1, §2

AURKA = target: T11, AURKA (Homo sapiens, UniProt O14965); experiment: Broad kinase panel screen (split-luciferase); format: binding
T11 construct: purchased Luceome Biotechnologies
Description: as §1, §2

DDR1 = target: T12, DDR1 (Homo sapiens, UniProt Q08345); experiment: Broad kinase panel screen (split-luciferase); format: binding; conditions: DDR1, 0.5 uM
T12 construct: purchased Luceome Biotechnologies
Description: as §1, §2

KIT = target: T13, KIT (Homo sapiens, UniProt P10721); experiment: Broad kinase panel screen (split-luciferase); format: binding
T13 construct: purchased Luceome Biotechnologies
T13 sequence (P10721 26-976): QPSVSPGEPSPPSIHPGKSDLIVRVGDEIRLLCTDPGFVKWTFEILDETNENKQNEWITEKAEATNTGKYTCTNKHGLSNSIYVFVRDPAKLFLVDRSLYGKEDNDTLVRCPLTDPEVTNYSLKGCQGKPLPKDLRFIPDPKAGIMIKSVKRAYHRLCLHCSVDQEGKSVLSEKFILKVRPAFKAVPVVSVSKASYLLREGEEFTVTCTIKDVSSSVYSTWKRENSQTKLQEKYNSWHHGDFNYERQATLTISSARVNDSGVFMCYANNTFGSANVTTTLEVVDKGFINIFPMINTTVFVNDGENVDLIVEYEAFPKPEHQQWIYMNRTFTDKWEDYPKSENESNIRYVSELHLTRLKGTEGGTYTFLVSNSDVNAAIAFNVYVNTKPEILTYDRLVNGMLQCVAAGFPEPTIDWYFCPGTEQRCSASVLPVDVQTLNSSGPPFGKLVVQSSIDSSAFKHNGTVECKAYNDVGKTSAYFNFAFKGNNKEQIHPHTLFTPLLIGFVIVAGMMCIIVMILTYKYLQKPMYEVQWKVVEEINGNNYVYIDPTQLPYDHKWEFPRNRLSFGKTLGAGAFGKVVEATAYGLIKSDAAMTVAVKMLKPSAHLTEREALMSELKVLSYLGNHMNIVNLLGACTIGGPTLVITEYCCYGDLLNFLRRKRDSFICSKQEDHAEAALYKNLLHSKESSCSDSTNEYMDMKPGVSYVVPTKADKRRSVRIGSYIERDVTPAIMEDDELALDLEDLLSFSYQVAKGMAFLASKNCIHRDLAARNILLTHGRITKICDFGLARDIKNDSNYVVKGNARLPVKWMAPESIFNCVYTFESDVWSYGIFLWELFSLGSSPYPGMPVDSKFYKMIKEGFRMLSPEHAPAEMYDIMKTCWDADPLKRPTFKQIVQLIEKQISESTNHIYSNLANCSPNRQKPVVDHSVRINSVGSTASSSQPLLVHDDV
Description: as §1, §2

DAPK3 = target: T14, DAPK3 (Homo sapiens, UniProt O43293); experiment: Broad kinase panel screen (split-luciferase); format: binding; conditions: DAPK3, 0.5 uM
T14 construct: purchased Luceome Biotechnologies
Description: as §1, §2

YANK2 = target: T15, YANK2 (Homo sapiens, UniProt Q9NY57); experiment: Broad kinase panel screen (split-luciferase); format: binding; conditions: YANK2, 0.5 uM
T15 construct: purchased Luceome Biotechnologies
T15 sequence (Q9NY57 whole entry): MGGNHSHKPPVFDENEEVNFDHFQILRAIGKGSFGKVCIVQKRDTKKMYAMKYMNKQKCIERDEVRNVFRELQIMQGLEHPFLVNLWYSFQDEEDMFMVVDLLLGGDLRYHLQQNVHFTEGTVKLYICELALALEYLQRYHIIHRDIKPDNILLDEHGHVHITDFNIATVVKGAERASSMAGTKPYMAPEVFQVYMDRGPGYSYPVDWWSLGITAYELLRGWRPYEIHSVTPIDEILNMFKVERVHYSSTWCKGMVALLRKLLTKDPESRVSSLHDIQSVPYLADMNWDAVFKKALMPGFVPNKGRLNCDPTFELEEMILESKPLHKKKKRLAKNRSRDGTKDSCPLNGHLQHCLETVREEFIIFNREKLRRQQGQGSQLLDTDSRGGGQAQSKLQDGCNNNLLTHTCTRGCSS
Description: as §1, §2

SIK2 = target: T16, SIK2 (Homo sapiens, UniProt Q9H0K1); experiment: Broad kinase panel screen (split-luciferase); format: binding; conditions: SIK2, 0.5 uM
T16 construct: purchased Luceome Biotechnologies
Description: as §1, §2

MUSK = target: T17, MUSK (Homo sapiens, UniProt O15146); experiment: Broad kinase panel screen (split-luciferase); format: binding
T17 construct: purchased Luceome Biotechnologies
Description: as §1, §2

MSK2/RPS6KA4 = target: T18, MSK2/RPS6KA4 (Homo sapiens, UniProt O75676); experiment: Broad kinase panel screen (split-luciferase); format: binding; conditions: MSK2/RPS6KA4, 0.5 uM
T18 construct: purchased Luceome Biotechnologies
Description: as §1, §2

PKA/PRKACA = target: T19, PKA/PRKACA (Homo sapiens, UniProt P17612); experiment: Broad kinase panel screen (split-luciferase); format: binding
T19 construct: purchased Luceome Biotechnologies
Description: as §1, §2

AKT2 = target: T20, AKT2 (Homo sapiens, UniProt P31751); experiment: Broad kinase panel screen (split-luciferase); format: binding; conditions: AKT2, 0.5 uM
T20 construct: purchased Luceome Biotechnologies
Description: as §1, §2

TNK1 = target: T21, TNK1 (Homo sapiens, UniProt Q13470); experiment: Broad kinase panel screen (split-luciferase); format: binding; conditions: TNK1, 0.5 uM
T21 construct: purchased Luceome Biotechnologies
Description: as §1, §2

AURKB = target: T22, AURKB (Homo sapiens, UniProt Q96GD4); experiment: Broad kinase panel screen (split-luciferase); format: binding
T22 construct: purchased Luceome Biotechnologies
Description: as §1, §2

YSK1 = target: T23, YSK1 (Homo sapiens, UniProt O00506); experiment: Broad kinase panel screen (split-luciferase); format: binding; conditions: YSK1, 0.5 uM
T23 construct: purchased Luceome Biotechnologies
Description: as §1, §2

PKX/PRKX = target: T24, PKX/PRKX (Homo sapiens, UniProt P51817); experiment: Broad kinase panel screen (split-luciferase); format: binding
T24 construct: purchased Luceome Biotechnologies
Description: as §1, §2

FLT3 = target: T25, FLT3 (Homo sapiens, UniProt P36888); experiment: Broad kinase panel screen (split-luciferase); format: binding; conditions: FLT3, 0.5 uM
T25 construct: purchased Luceome Biotechnologies
Description: as §1, §2

human GCN2 = target: T26, human GCN2 (Homo sapiens, UniProt Q9P2K8); experiment: radiometric HotSpot kinase assay; format: biochemical; conditions: ATP at the ATP Km of GCN2; means of two independent experiments
T26 construct: purchased Reaction Biology Corporation (Malvern, PA)
T26 sequence (Q9P2K8 whole entry): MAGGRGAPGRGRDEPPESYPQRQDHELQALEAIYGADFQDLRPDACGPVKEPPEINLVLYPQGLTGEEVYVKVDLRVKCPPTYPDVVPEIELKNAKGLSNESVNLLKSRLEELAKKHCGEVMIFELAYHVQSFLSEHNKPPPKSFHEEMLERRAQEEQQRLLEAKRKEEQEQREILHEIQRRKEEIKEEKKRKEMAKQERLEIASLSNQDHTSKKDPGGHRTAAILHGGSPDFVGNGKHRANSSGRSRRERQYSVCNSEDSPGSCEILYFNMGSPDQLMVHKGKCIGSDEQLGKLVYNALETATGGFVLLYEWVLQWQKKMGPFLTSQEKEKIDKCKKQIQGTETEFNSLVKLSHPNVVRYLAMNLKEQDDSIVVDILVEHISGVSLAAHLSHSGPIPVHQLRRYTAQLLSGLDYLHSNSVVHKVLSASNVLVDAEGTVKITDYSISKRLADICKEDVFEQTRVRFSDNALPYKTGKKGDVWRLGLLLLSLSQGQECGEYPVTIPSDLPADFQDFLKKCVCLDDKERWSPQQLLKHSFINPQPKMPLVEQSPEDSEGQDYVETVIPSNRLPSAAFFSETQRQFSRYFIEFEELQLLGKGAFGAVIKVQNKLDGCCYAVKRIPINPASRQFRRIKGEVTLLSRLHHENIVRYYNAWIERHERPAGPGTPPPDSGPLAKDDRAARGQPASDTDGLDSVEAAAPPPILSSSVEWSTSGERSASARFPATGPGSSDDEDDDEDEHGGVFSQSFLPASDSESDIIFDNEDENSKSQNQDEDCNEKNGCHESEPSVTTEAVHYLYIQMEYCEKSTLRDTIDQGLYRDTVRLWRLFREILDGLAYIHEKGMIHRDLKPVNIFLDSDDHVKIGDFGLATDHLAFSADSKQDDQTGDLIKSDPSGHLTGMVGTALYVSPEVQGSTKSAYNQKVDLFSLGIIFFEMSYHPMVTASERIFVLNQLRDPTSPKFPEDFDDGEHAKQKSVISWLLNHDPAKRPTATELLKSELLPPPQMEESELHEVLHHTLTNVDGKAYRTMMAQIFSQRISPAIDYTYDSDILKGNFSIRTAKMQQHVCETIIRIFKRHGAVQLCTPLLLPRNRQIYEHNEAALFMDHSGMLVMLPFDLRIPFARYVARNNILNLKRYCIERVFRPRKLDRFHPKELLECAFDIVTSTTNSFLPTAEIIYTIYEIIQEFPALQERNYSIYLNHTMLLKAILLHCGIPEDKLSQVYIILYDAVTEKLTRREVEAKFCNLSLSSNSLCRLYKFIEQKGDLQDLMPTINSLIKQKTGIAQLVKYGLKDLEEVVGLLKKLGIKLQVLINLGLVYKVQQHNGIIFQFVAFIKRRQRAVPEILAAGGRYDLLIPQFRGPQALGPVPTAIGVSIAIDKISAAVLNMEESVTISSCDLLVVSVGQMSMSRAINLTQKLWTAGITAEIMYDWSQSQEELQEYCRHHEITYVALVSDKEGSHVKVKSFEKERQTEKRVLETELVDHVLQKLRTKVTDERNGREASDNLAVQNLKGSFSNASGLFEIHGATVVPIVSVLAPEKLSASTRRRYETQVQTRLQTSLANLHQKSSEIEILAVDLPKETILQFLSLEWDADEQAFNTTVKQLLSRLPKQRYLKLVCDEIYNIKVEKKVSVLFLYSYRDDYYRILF
Description: (§3) Compounds 1–9 were screened in a radiometric […] kinase assay against human GCN2 and other kinases involved in the UPR and ISR pathways (Table 1). […] The most soluble of the potent tool compounds (1 and 2) were selected for in vitro cell-based assays where the phosphorylation of eIF2α (p-eIF2α) was used as a readout for GCN2 inhibition.
In vitro compound profiling for recombinant GCN2, PERK, HRI, PKR, or IRE1 kinases were performed at Reaction Biology Corporation (Malvern, PA) using the HotSpot kinase assay. Briefly, all compounds provided for testing were dissolved in 10 mM DMSO stock solutions. Serial dilutions were conducted by epMotion 5070 in DMSO. Specific kinase/substrate mixtures and required cofactors were prepared in reaction buffer (20 mM Hepes (pH 7.5), 10 mM MgCl2, 1 mM EGTA, 0.02% Brij35, 0.02 mg/ml BSA, 0.1 mM Na3VO4, 2 mM DTT, 1% DMSO). Compounds were added to the kinase reaction mixture by Acoustic technology (Echo550; nanoliter range) and incubated for 20 min at room temperature. The kinase reaction was initiated by adding ^33P ATP to a final concentration of 10 μM for single point kinase activity reading or to the ATP Km of GCN2 for IC50 readings. The reaction was incubated or 2 h at room temperature and kinase activity was detected by filter-binding method. IC50 values and curves were generated with GraphPad Prism 7 (GraphPad software).

[1] = target: standard panel of 50 protein kinases; experiment: Broad kinase panel screen, whole panel; format: binding; conditions: 0.5 μM
Description: as §3, §1, §2

Q: Which results are given for `CCOc1ccc(-n2nnc3cnc(Nc4cnn(CC)c4)nc32)cc1` [Compound 2, 3-(4-Ethoxyphenyl)-N-(1-ethyl-1H-pyrazol-4-yl)-3H-[1,2,3]triazolo[4,5-d]pyrimidin-5-amine]?
A: remaining activity at 0.5 µM (PDK1/PDPK1): 96.2%; remaining activity at 0.5 µM (ABL1): 88.9%; remaining activity at 0.5 µM (IGF1R): 100%; remaining activity at 0.5 µM (PLK4): 100%; remaining activity at 0.5 µM (PKCe/PRKCE): 100%; remaining activity at 0.5 µM (PTK2B/PYK2): 96%; remaining activity at 0.5 µM (CAMK2D): 89.9%; remaining activity at 0.5 µM (MST2): 100%; remaining activity at 0.5 µM (PDGFRB): 84.4%; remaining activity at 0.5 µM (MARK1): 100%; remaining activity at 0.5 µM (AURKA): 97.1%; remaining activity at 0.5 µM (DDR1): 93.1%; remaining activity at 0.5 µM (KIT): 88.8%; remaining activity at 0.5 µM (DAPK3): 97.6%; remaining activity at 0.5 µM (YANK2): 100%; remaining activity at 0.5 µM (SIK2): 100%; remaining activity at 0.5 µM (MUSK): 100%; remaining activity at 0.5 µM (MSK2/RPS6KA4): 100%; remaining activity at 0.5 µM (PKA/PRKACA): 100%; remaining activity at 0.5 µM (AKT2): 96.8%; remaining activity at 0.5 µM (TNK1): 100%; remaining activity at 0.5 µM (AURKB): 94.7%; remaining activity at 0.5 µM (YSK1): 93.6%; remaining activity at 0.5 µM (PKX/PRKX): 97.7%; remaining activity at 0.5 µM (FLT3): 100%; IC50 (human GCN2): 18.6 nM; kinase inhibition in standard broad kinase panel (in words) [1]: no significant kinase inhibition
